Source: US20170100320A1, “COMPOSITION FOR EXTERNAL USE SKIN PREPARATION, CONTAINING THIOREDOXIN” (Amorepacific Corporation, priority 2012, published 2017)

Columns and labels:
Assay type in all cases: cell-based
[1] = biological target: T1, 5α-reductase in HEK293-5αR2 cells (Homo sapiens, UniProt P31213); assay: Inhibition of 5α-reductase activity ([14C]testosterone to [14C]dihydrotestosterone conversion); conditions: 2 hours incubation at 37° C.; for Conversion (%): testosterone to DHT
T1 construct: 3xFLAG; expressed in transfected cells; host or cells: HEK293 (Human Embryonic Kidney 293)
T1 sequence (P31213 1-254): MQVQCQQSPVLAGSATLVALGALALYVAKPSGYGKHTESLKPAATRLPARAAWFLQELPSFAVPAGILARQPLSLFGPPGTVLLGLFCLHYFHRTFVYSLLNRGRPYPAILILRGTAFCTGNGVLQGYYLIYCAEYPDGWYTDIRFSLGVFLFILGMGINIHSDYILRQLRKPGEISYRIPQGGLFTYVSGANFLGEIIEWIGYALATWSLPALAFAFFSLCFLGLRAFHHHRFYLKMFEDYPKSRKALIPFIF
Procedure: In order to examine the effect of inhibiting 5α-reductase activity, the ratio of [^14C]testosterone-to-[^14C]dihydrotestosteron conversion in Human Embryonic Kidney 293(HEK293)-5αR2 cells was measured. HEK293 cells transfected with plasmid p3×FLAG-CMV™-5αR2 were added to a 24-well plate at a density of 2.5×10^5cells/well and cultured (Park et al., 2003, J. Dermatological Science. Vol. 31, pp. 91-98). The next day, the medium was replaced with a fresh medium containing an enzyme substrate and an inhibitor. As the substrate of the medium, 0.05 μCi [^14C]testosterone (Amersham Pharmacia Biotech, UK) was used.
In order to measure the degree of inhibition of 5α-reductase activity, thioredoxin was added to the cells which were then incubated in a 5% CO2 incubator at 37° C. for 2 hours. At the same time, a medium containing no thioredoxin was used as a negative, and a medium containing finasteride was used as a positive control. Next, the culture medium was collected, and steroid was extracted with 800 μl of ethyl acetate. The upper organic solvent layer was separated and dried, and the remaining material was dissolved in 50 μl of ethyl acetate and developed on silica plastic sheet kieselgel 60 F254 using ethyl acetate-hexane (1:1) as a developing solvent.
The plastic sample was dried in air, and the amount of isotopes was measured using a Vas system. Specifically, the dried plastic sheet together with an X-ray film was placed in a Vas cassette, and after 1 week, the amounts of the testosterone and dihydrotestosterone (DHT) isotopes were measured, and then the percent conversion and the percent inhibition were measured using the following equations 1 and 2, respectively.
Conversion (%)=radioactivity in the DHT region/total radioactivity×100
Inhibition (%)=(conversion of control−conversion of sample)/conversion of control×100

fibroblasts = assay: Stimulation of collagen biosynthesis (procollagen type (I) ELISA); conditions: 24 hours; relative to control = 100%; TGF-beta 10 ng/ml
Procedure: The effect of thioredoxin of the present invention on the stimulation of collagen biosynthesis was measured in comparison with TGF-beta.
First, fibroblasts were seeded into a 24-well plate at a density of 10^5cells/well and cultured in serum-free DMEM medium for 24 hours to a confluence of about 90%. Then, the cells were treated with each of a solution of thioredoxin of the present invention and 10 ng/ml of TGF-beta dissolved in serum-free medium and incubated in a CO2 incubator for 24 hours. The supernatants of the cell cultures were collected and the amount of procollagen therein was measured using a procollagen type (I) ELISA kit. The values of collagen synthesis (%) in Table 8 are expressed as percentages relative to the control taken as 100%.

human keratinocytes = assay: Stimulation of keratinocyte differentiation (cornified envelope protein, absorbance 340 nm); conditions: 5 days culture; thioredoxin 5 ppm; low-calcium negative control = 100
Procedure: In order to examine the effect of thioredoxin on the stimulation of differentiation of keratinocytes, the amount of cornified envelope (CE) protein produced during the differentiation of keratinocytes was measured by absorbance in the following manner.
Specifically, human keratinocytes, isolated from the […] of newborns and primarily cultured, were placed in a culture flask and attached to the bottom. Then, the cells were cultured with a medium containing 5 ppm of thioredoxin for 5 days until the cells reached to a confluence of about 70-80%. At the same time, a low calcium (0.03 mM)-treated group and a high calcium (1.2 mM)-treated group were used as a negative control group and a positive control group, respectively. Then, the cultured cells were harvested and washed with PBS (phosphate buffered saline). Then, the cells were sonicated in 1 ml of 10 mM Tris-HCl (pH 7.4) containing 2% SDS (sodium dodecyl sulfate) and 20 mM DTT (dithiothreitol), boiled and centrifuged. The precipitate was suspended in 1 ml of PBS, and the absorbance at 340 nm was measured. Separately, a portion of the solution following the sonication was taken, and the protein content thereof was measured as a reference for evaluating the degree of differentiation of the cells.

| Inhibition (%) ([1]; relative to conversion of control) | Compound | Conversion (%) [1] [%] | Collagen synthesis (%) (fibroblasts) | Degree (%) of differentiation of keratinocytes (human keratinocytes) [%] |
| --- | --- | --- | --- | --- |
| – | CC(C)(C)NC(=O)[C@H]1CC[C@H]2[C@@H]3CC[C@H]4NC(=O)C=C[C@]4(C)[C@H]3CC[C@]12C [Positive control, finasteride, reference compound] | 27.6 | – | – |
| 60.8 | Thioredoxin | 15.9 | 196.2 | 295 |
| – | TGF-β [reference compound] | – | 183.5 | – |
